# Active and inactive are the calls of the source. The rule behind the calls is not given here.
# Tested on: rodent lifetime carcinogenesis bioassay, tumor incidence TD50
# Test: carcinogenic potency in animals, long-term in vivo studies, CPDB compilation (AID 1745844)
structure (smiles),measurement,setting,value
[N-]=[N+]=O,carcinogen call,"mouse, strain Swiss Webster, females, inhaled, site: liver, lesion: one or several types, types not named, dosed 78 weeks, study length 83 weeks",negative (inactive)
same,TD50,"mouse, strain Swiss Webster, females, inhaled, site: lung, lesion: adenoma, dosed 78 weeks, study length 83 weeks",309000 mg/kg/day (inactive)
same,carcinogen call,"mouse, strain Swiss Webster, females, inhaled, site: several sites, sites named in the paper, lesion: one or several types, types not named, dosed 78 weeks, study length 83 weeks",negative (inactive)
same,carcinogen call,"mouse, strain Swiss Webster, males, inhaled, site: liver, lesion: one or several types, types not named, dosed 78 weeks, study length 83 weeks",negative (inactive)
same,carcinogen call,"mouse, strain Swiss Webster, males, inhaled, site: lung, lesion: adenoma, dosed 78 weeks, study length 83 weeks",negative (inactive)
same,carcinogen call,"mouse, strain Swiss Webster, males, inhaled, site: several sites, sites named in the paper, lesion: one or several types, types not named, dosed 78 weeks, study length 83 weeks",negative (inactive)
CC(C)N=[N+]([O-])C(C)C,TD50,"rat, strain Sprague-Dawley, males, by gavage, site: liver, lesion: hepatocellular carcinoma, dosed 26 weeks, study length 77 weeks",0.00736 mg/kg/day
same,TD50,"rat, strain Sprague-Dawley, males, by gavage, site: skin, lesion: keratoacanthoma, dosed 26 weeks, study length 77 weeks",0.00268 mg/kg/day
NNCCO,TD50,"hamster, strain Syrian Golden, females, in drinking water, site: liver, lesion: hepatoma, dosed 84 weeks, study length 84 weeks",148 mg/kg/day (inactive)
same,TD50,"hamster, strain Syrian Golden, males, in drinking water, site: liver, lesion: hepatoma, dosed 84 weeks, study length 84 weeks",84.4 mg/kg/day (inactive)
same,TD50,"mouse, strain B6AKF1, females, oral dosing, site: any site (literature study), lesion: several types, types named in the paper, dosed 78 weeks, study length 78 weeks",5.34 mg/kg/day
same,TD50,"mouse, strain B6AKF1, males, oral dosing, site: any site (literature study), lesion: several types, types named in the paper, dosed 78 weeks, study length 78 weeks",0.404 mg/kg/day
same,TD50,"mouse, strain B6AKF1, males, oral dosing, site: liver, lesion: hepatoma, dosed 78 weeks, study length 78 weeks",0.314 mg/kg/day
same,TD50,"mouse, strain B6C3F1, females, oral dosing, site: any site (literature study), lesion: several types, types named in the paper, dosed 78 weeks, study length 78 weeks",4.77 mg/kg/day
same,TD50,"mouse, strain B6C3F1, females, oral dosing, site: liver, lesion: hepatoma, dosed 78 weeks, study length 78 weeks",4.77 mg/kg/day
same,TD50,"mouse, strain B6C3F1, females, oral dosing, site: lung, lesion: adenoma, dosed 78 weeks, study length 78 weeks",4.77 mg/kg/day
same,TD50,"mouse, strain B6C3F1, males, oral dosing, site: any site (literature study), lesion: several types, types named in the paper, dosed 78 weeks, study length 78 weeks",0.713 mg/kg/day
same,TD50,"mouse, strain B6C3F1, males, oral dosing, site: liver, lesion: hepatoma, dosed 78 weeks, study length 78 weeks",0.541 mg/kg/day
same,carcinogen call,"mouse, strain Swiss, females, in drinking water, site: lung, lesion: one or several types, types not named, dosed 75 weeks, study length 75 weeks",negative (inactive)
same,carcinogen call,"mouse, strain Swiss, males, in drinking water, site: liver, lesion: several types, types named in the paper, dosed 75 weeks, study length 75 weeks",negative (inactive)
same,carcinogen call,"mouse, strain Swiss, males, in drinking water, site: lung, lesion: one or several types, types not named, dosed 75 weeks, study length 75 weeks",negative (inactive)
CN(CCc1ccccc1)N=O,TD50,"rat, strain Fischer 344, males, in drinking water, site: esophagus, lesion: several types, types named in the paper, dosed 32 weeks, study length 127 weeks",0.0401 mg/kg/day
same,TD50,"rat, strain Fischer 344, males, in drinking water, site: esophagus, lesion: several types, types named in the paper, dosed 104 weeks, study length 127 weeks",0.0422 mg/kg/day
same,TD50,"rat, strain Fischer 344, males, in drinking water, site: forestomach, lesion: basal-cell carcinoma, dosed 32 weeks, study length 127 weeks",2.57 mg/kg/day
same,TD50,"rat, strain Fischer 344, males, in drinking water, site: forestomach, lesion: basal-cell carcinoma, dosed 104 weeks, study length 127 weeks",0.0422 mg/kg/day
same,TD50,"rat, strain Fischer 344, males, in drinking water, site: forestomach, lesion: basal-cell papilloma, dosed 32 weeks, study length 127 weeks",2.21 mg/kg/day
same,TD50,"rat, strain Fischer 344, males, in drinking water, site: liver, lesion: hyperplastic nodule, dosed 104 weeks, study length 127 weeks",0.184 mg/kg/day
same,carcinogen call,"rat, strain Fischer 344, males, in drinking water, site: tongue, lesion: basal-cell carcinoma, dosed 32 weeks, study length 127 weeks",positive
same,TD50,"rat, strain Fischer 344, males, in drinking water, site: tongue, lesion: basal-cell carcinoma, dosed 104 weeks, study length 127 weeks",0.184 mg/kg/day
same,TD50,"rat, strain Fischer 344, males, in drinking water, site: upper gastrointestinal tract, lesion: several types, types named in the paper, dosed 32 weeks, study length 127 weeks",0.00788 mg/kg/day
same,TD50,"rat, strain Fischer 344, males, in drinking water, site: upper gastrointestinal tract, lesion: several types, types named in the paper, dosed 104 weeks, study length 127 weeks",0.0136 mg/kg/day
CC(=O)N[C@@H](CC(C)C)C(=O)N[C@@H](CC(C)C)C(=O)NC(C=O)CCCN=C(N)N (some centres undefined),TD50,"mouse, strain A/JJms, females, in feed, site: liver, lesion: liver-cell tumor, type B, dosed 68 weeks, study length 68 weeks",933 mg/kg/day (inactive)
same,TD50,"mouse, strain A/JJms, females, in feed, site: lung, lesion: several types, types named in the paper, dosed 68 weeks, study length 68 weeks",229 mg/kg/day (inactive)
same,TD50,"mouse, strain A/JJms, males, in feed, site: liver, lesion: several types, types named in the paper, dosed 68 weeks, study length 68 weeks",55.8 mg/kg/day
same,TD50,"mouse, strain A/JJms, males, in feed, site: lung, lesion: several types, types named in the paper, dosed 68 weeks, study length 68 weeks",422 mg/kg/day (inactive)
COc1cc(-c2ccc(N=C=O)c(OC)c2)ccc1N=C=O,TD50,"mouse, strain B6C3F1, females, in feed, site: any site (literature study), lesion: several types, types named in the paper, dosed 78 weeks, study length 103 weeks",32800 mg/kg/day (inactive)
same,TD50,"mouse, strain B6C3F1, males, in feed, site: any site (literature study), lesion: several types, types named in the paper, dosed 78 weeks, study length 103 weeks",24000 mg/kg/day (inactive)
same,TD50,"mouse, strain B6C3F1, males, in feed, site: liver, lesion: hepatocellular adenoma + hepatocellular carcinoma + neoplastic nodule, dosed 78 weeks, study length 103 weeks",12100 mg/kg/day
same,TD50,"mouse, strain B6C3F1, males, in feed, site: lung, lesion: alveolar/bronchiolar adenoma + alveolar/bronchiolar carcinoma, dosed 78 weeks, study length 103 weeks",87900 mg/kg/day
same,TD50,"rat, strain Fischer 344, females, oral dosing, site: all sites + uterus, lesion: leukemia + lymphoma + endometrial stromal polyp, dosed 78 weeks, study length 104 weeks",1450 mg/kg/day
same,TD50,"rat, strain Fischer 344, females, oral dosing, site: all sites, lesion: leukemia + lymphoma, dosed 78 weeks, study length 104 weeks",2280 mg/kg/day
same,TD50,"rat, strain Fischer 344, females, oral dosing, site: any site (literature study), lesion: several types, types named in the paper, dosed 78 weeks, study length 104 weeks",773 mg/kg/day
same,TD50,"rat, strain Fischer 344, females, oral dosing, site: ear + Zymbal's gland, lesion: sebaceous adenocarcinoma + squamous-cell carcinoma + trichoepithelioma, dosed 78 weeks, study length 104 weeks",2590 mg/kg/day
same,TD50,"rat, strain Fischer 344, females, oral dosing, site: liver, lesion: hepatocellular adenoma + hepatocellular carcinoma + neoplastic nodule, dosed 78 weeks, study length 104 weeks",17100 mg/kg/day
same,TD50,"rat, strain Fischer 344, females, oral dosing, site: uterus, lesion: endometrial stromal polyp, dosed 78 weeks, study length 104 weeks",2740 mg/kg/day
same,TD50,"rat, strain Fischer 344, males, oral dosing, site: all sites + skin of foot and toe + skin of back + skin of flank + skin, lesion: leukemia + lymphoma + keratoacanthoma + basal-cell tumor + papilloma, NOS + sebaceous adenoma + sebaceous adenoma and adenocarcinoma, dosed 78 weeks, study length 104 weeks",742 mg/kg/day
same,TD50,"rat, strain Fischer 344, males, oral dosing, site: all sites, lesion: leukemia + lymphoma, dosed 78 weeks, study length 104 weeks",1270 mg/kg/day
same,TD50,"rat, strain Fischer 344, males, oral dosing, site: any site (literature study), lesion: several types, types named in the paper, dosed 78 weeks, study length 104 weeks",809 mg/kg/day
same,TD50,"rat, strain Fischer 344, males, oral dosing, site: ear + Zymbal's gland, lesion: squamous-cell carcinoma, dosed 78 weeks, study length 104 weeks",7010 mg/kg/day
same,TD50,"rat, strain Fischer 344, males, oral dosing, site: liver, lesion: hepatocellular adenoma + hepatocellular carcinoma + neoplastic nodule, dosed 78 weeks, study length 104 weeks",6600 mg/kg/day
same,TD50,"rat, strain Fischer 344, males, oral dosing, site: skin of foot and toe + skin of back + skin of flank + skin, lesion: keratoacanthoma + basal-cell tumor + papilloma, NOS + sebaceous adenoma + trichoepithelioma, dosed 78 weeks, study length 104 weeks",1770 mg/kg/day
same,TD50,"rat, strain Fischer 344, males, oral dosing, site: skin of foot and toe + skin of back + skin of flank + skin, lesion: keratoacanthoma + basal-cell tumor + papilloma, NOS + sebaceous adenoma and adenocarcinoma + squamous-cell carcinoma + trichoepith, dosed 78 weeks, study length 104 weeks",1330 mg/kg/day
CC(C)Oc1ccc(Nc2ccccc2)cc1,TD50,"mouse, strain B6AKF1, females, oral dosing, site: any site (literature study), lesion: several types, types named in the paper, dosed 76 weeks, study length 76 weeks",1200 mg/kg/day (inactive)
same,TD50,"mouse, strain B6AKF1, females, oral dosing, site: liver, lesion: angioma, dosed 76 weeks, study length 76 weeks",2650 mg/kg/day (inactive)
same,carcinogen call,"mouse, strain B6AKF1, females, oral dosing, site: lung, lesion: adenoma, dosed 76 weeks, study length 76 weeks",negative (inactive)
same,TD50,"mouse, strain B6AKF1, males, oral dosing, site: any site (literature study), lesion: several types, types named in the paper, dosed 76 weeks, study length 76 weeks",985 mg/kg/day (inactive)
same,TD50,"mouse, strain B6AKF1, males, oral dosing, site: liver, lesion: hepatoma, dosed 76 weeks, study length 76 weeks",1130 mg/kg/day (inactive)
same,TD50,"mouse, strain B6AKF1, males, oral dosing, site: lung, lesion: adenoma, dosed 76 weeks, study length 76 weeks",2180 mg/kg/day (inactive)
same,TD50,"mouse, strain B6C3F1, females, oral dosing, site: any site (literature study), lesion: several types, types named in the paper, dosed 76 weeks, study length 76 weeks",1290 mg/kg/day (inactive)
same,TD50,"mouse, strain B6C3F1, females, oral dosing, site: liver, lesion: hepatoma, dosed 76 weeks, study length 76 weeks",2650 mg/kg/day (inactive)
same,carcinogen call,"mouse, strain B6C3F1, females, oral dosing, site: lung, lesion: several types, types named in the paper, dosed 76 weeks, study length 76 weeks",negative (inactive)
same,TD50,"mouse, strain B6C3F1, males, oral dosing, site: any site (literature study), lesion: several types, types named in the paper, dosed 76 weeks, study length 76 weeks",300 mg/kg/day (inactive)
same,TD50,"mouse, strain B6C3F1, males, oral dosing, site: liver, lesion: hepatoma, dosed 76 weeks, study length 76 weeks",679 mg/kg/day (inactive)
same,TD50,"mouse, strain B6C3F1, males, oral dosing, site: lung, lesion: adenoma, dosed 76 weeks, study length 76 weeks",2180 mg/kg/day (inactive)
